Data set [1] deals with rat FAAH protein (30-579) (Rattus norvegicus (Rat), UniProt P97612). As to the kind of experiment: Rat FAAH inhibition assay (AAMCA fluorescence). In kind it is biochemical. To be noted: 3-hour pre-incubation with compound, 120 nM FAAH; read-out: FAAH Rat IC50 (nM) 180 minutes. From the text: Rat FAAH Inhibition Assay
Active rat FAAH protein (30-579) was isolated as described in the literature. The coding sequence of amino acids 30-579 of rat FAAH were cloned into the expression vector pET28a to provide an N-terminal His-tag. Following expression, the His-tagged FAAH′ (30-579) was isolated using a method based on Patricelli et al., 1998; Biochemistry vol 37, p 15177 with a combination of chelating sepharose, heparin sepharose and size exclusion chromatography.
FAAH activity was determined by measuring the liberation of the highly fluorescent 7-amino, 4-methyl Coumarin (AMC) generated during hydrolysis of the substrate Arachidonoyl 7-Amino, 4-methyl Coumarin Amide (AAMCA) by FAAH. Inhibition of FAAH activity was determined as a percentage reduction of the fluorescence determined in the absence of compound.
The assay was carried out in black-walled, clear bottom, 384-well plates. 27.5 μl of FAAH protein (in FAAH assay buffer: 50 mM Hepes, 0.01% Triton X-100, 1 mM EDTA, 0.5 mg/ml BSA (fatty-acid-free), pH 8.2) was pre-incubated, at 120 nM, with increasing concentrations of compounds (2.5 μl in 100% DMSO) for 0, 1 or 3 hours at room temperature. 2.5 μl of DMSO was added for ‘total’ controls (100% FAAH activity) and 2.5 μl of URB-597, a known inhibitor of FAAH activity, (at a final, saturating, concentration of 10 μM) was used for ‘non-specific’ controls (0% FAAH activity). 20 μl of 7.5 μM AAMCA substrate (in FAAH assay buffer) was then added to all wells and incubated at room temperature for a further 1.5 hours. Fluorescence was determined at an excitation wavelength of 355 nm and an emission wavelength of 460 nm using a Flexstation plate reader (Molecular Devices, UK). Inhibition of FAAH activity, by the compounds, was determined as the percentage reduction in relative fluorescence units (RFU) compared to the ‘total’ controls (in the absence of compound) minus the ‘non-specific’ controls. IC50 values were determined, from 10-point dose response curves, in XL-Fit using a 4-Parameter Logistic Model (Sigmoidal Dose-Response Model).
The following Table 1 provides the 3-hour incubation results of testing the compounds of Examples 1-4 herein in the above rat FAAH inhibition assay.

The target of another data set is FAAH (Homo sapiens (Human), UniProt O00519). As to the kind of experiment: Intrinsic FAAH inhibitory potency (summary statement). To be noted: qualitative statement. In kind it is biochemical.
FAAH, sequence (O00519 whole entry): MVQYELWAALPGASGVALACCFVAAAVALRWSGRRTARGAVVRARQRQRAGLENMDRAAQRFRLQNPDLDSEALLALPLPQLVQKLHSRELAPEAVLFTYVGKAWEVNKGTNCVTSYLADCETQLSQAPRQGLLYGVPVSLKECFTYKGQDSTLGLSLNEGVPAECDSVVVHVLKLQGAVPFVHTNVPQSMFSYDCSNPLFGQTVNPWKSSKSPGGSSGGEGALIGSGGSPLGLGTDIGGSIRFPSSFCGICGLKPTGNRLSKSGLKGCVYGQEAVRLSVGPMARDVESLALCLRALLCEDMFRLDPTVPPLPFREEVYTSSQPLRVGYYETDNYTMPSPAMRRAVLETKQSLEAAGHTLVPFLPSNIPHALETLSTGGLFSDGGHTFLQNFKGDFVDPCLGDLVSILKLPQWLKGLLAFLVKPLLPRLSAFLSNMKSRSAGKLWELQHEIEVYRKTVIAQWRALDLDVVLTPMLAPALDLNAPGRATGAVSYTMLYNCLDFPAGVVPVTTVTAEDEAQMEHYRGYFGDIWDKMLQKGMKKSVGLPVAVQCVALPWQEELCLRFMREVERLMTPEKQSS
Data set [2] can be described thus: Plasma concentrations after oral administration in laboratory rats. In kind it is in vivo, rat.

rat FAAH protein (30-579), sequence (P97612 30-579): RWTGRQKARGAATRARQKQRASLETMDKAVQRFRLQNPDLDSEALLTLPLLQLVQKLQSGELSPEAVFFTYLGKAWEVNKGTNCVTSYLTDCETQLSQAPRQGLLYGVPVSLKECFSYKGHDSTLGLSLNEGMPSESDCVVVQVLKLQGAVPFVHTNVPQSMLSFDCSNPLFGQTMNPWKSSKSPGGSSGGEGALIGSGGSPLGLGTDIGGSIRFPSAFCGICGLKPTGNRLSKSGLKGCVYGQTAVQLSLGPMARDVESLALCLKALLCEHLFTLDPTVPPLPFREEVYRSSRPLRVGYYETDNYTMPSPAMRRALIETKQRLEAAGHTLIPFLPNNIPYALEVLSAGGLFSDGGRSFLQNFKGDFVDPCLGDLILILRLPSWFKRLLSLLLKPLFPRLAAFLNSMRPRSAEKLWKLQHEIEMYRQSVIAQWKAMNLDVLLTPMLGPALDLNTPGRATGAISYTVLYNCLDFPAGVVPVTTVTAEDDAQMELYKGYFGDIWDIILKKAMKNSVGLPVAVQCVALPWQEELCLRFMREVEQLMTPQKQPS

Usually IC50 stands for the point on the concentration scale where inhibition reaches its midpoint. As to `O=C(Nc1cccnc1)N1CC(Oc2ccc(-c3ccccc3)cc2)C1` [Example 4, 3-(Biphenyl-4-yloxy)-azetidine-1-carboxylic acid pyridin-3-ylamide], in data set [1], the half-inhibitory concentration (IC50) was 67 nM. Also, on FAAH, the intrinsic-FAAH inhibitory potency entry is listed as “good”. Also, the “plasma concentrations after oral administration” value in data set [2] is “high and prolonged”.
